Three compounds from US7067622B2, “Method of the solid phase synthesis of pyrrole-imidazole polyamide” (Japan Science and Technology Agency, priority 2001, dated 2006) can be followed below.

This assay has as its system DNA fragment of 450 mer. Kind of assay: DNA alkylation experiment analysed by polyacrylamide gel electrophoresis. The format is biochemical. On the procedure:
(1) An DNA alkylation experiment was conducted using the above-synthesized Ac-Im-Py-β-ala-CO-Du86.
(2) A similar experiment was conducted by using Im-Im-β-ala-Py-Py-β-ala-CO-Du86. In this case, it was clarified that two imidazole portions recognized guanine in a DNA to cause a sequence-specific DNA alkylation.
(3) A similar experiment was conducted by using Ac-Im-Py-Py-γ-butyl-Py-Py-β-ala-Du86. A pyrrole-imidazole polyamide portion of this compound has a hairpin structure, and one molecule of this compound can recognize both of double strands of a DNA. Though it is known that a Py-Py pair selectively recognizes AT or TA, a Im-Py pair selectively recognizes GC, and a Py-Im pair selectively recognizes CG when the hairpin compound is combined with a DNA in accordance with the Dervan's rule, this compound includes a new pair of β-alanine pair-Im for the molecular recognition. Therefore, a new molecular recognition rule can be discovered using this compound. Accordingly, a DNA alkylation experiment was conducted to confirm the possibility. Results of the experiment are shown in FIG. 3 (DNA: pUC18III 70 nM; Reagent Concentration: 10 nM to 500 nM, 5 samples; Reaction Conditions: sodium phosphate buffer solution (1.46 mM), 37° C., 8 hours).

Where [1] appears, read: DNA fragment of 450 mer, polyacrylamide gel electrophoresis (FIG. 1, FIG. 2).

With `COC(=O)c1c(C)[nH]c2c1C13CC1CN(C(=O)CCNC(=O)c1cc(NC(=O)c4nc(NC(C)=O)cn4C)cn1C)C3=CC2=O` (stereo not drawn) [Ac-Im-Py-β-ala-CO-Du86], the “DNA sequence recognized and base alkylated (sequence-specific DNA alkylation)” value under setting [1] is “recognized 5′-TAAA-3′ and alkylated adenine of 3′-end”.
Consider Im-Im-β-ala-Py-Py-β-ala-CO-Du86, for which the “DNA sequence recognized and base alkylated (sequence-specific DNA alkylation)” value under setting [1] was “recognized 5′-GGAGAAA-3′ and alkylated adenine of 3′-end”.
With `COC(=O)c1c(C)[nH]c2c1[C@]13C[C@H]1CN(C(=O)CCNC(=O)c1cc(NC(=O)c4cc(NC(=O)CCCNC(=O)c5cc(NC(=O)c6cc(NC(=O)c7cc(NC(C)=O)cn7C)cn6C)cn5C)cn4C)cn1C)C3=CC2=O` [Ac-Im-Py-Py-γ-butyl-Py-Py-β-ala-Du86, Ac-Im-Py-Py-γ-butyl-Py-Py-β-ala-CO-Du86], the “DNA sequence recognized and base alkylated (sequence-specific DNA alkylation)” value (DNA: pUC18III 70 nM, reagent 10 nM to 500 nM, sodium phosphate buffer solution (1.46 mM), 37° C., 8 hours (FIG. 3)) is listed as “recognizes 5′-(A/T)(A/T)(A/T)C(A/G)-3′ portion to selectively alkylates adenine of the 3′-end”.
